Numbered stars: 1 amine (or outer) side, 2 acyl side, 3 side chain; on linkers, the order of the positions; unused ones are H or OH. Bridge positions count the residues as written; N and C are the ends. Square brackets hold non-standard residues; d marks the D form. Peptide text beside a SMILES is read from it. * marks the point of attachment. Orn(4R-OH,5R-OCH2CH2NMe3+) = C[N+](C)(C)CCO[C@@H](N[*:3])[C@H](O)C[C@H](N[*:1])C(=O)[*:2]; pTerphenylCO(4''-OnC5H11) = CCCCCOc1ccc(-c2ccc(-c3ccc(C(=O)*)cc3)cc2)cc1; hTyr(3S-OH,4S-OH) = N[C@H](C(=O)O)[C@H](O)[C@@H](O)c1ccc(O)cc1; X1 = CCCCCOc1cc(F)c(C#Cc2ccc3cc(C(=O)*)ccc3c2)cc1F; Pro(3S-OH,4S-Me) = C[C@H]1CN[C@H](C(=O)O)[C@H]1O; Hyp = O=C(O)[C@@H]1C[C@@H](O)CN1
Tests used:
in vivo = details: SD, rat, iv
[1] = test system: Aspergillus fumigatus ATCC 204305; assay: MEC assay, Aspergillus standard strain (CLSI M38-A2); format: cell-based; details: 21-26 h, 28° C.
Description: After gradient dilution of test compounds, an MIC assay was performed on a Candida standard strain, and an MEC assay was performed on an Aspergillus standard strain.
The colonies on the plate were covered with 0.85% physiological saline (1 mL) or sterile water (polysorbate 20 was added to a final concentration of 0.1%-0.01%). […] The resuspension of spore hyphae was transferred to a sterile test tube, and left to stand for 3-5 min to precipitate heavier particles. The homogeneous suspension on the upper layer was transferred to a new sterile test tube, and the tube was capped closely, and subjected to vortex shaking for 15 s (note: the suspension can produce an aerosol when the cap is reopened). The concentration of the suspension was adjusted to an OD value of 0.09-0.13 at 530 nm by using a spectrophotometer. […] Within 2 h after dilution, 100 μL of the diluted suspension was added to each well in a 96-well plate (the concentration of spores in the final drug sensitive plate should be 0.4×10^4-5×10^4 CFU/mL).
In order to accurately determine MEC value, vortex oscillation should not be allowed before reading the plate.

[2] = rat, in vivo, iv
[3] = test system: Cryptococcus neoformans ATCC 208821; assay: MIC assay, yeast-type fungi (CLSI M27-A3); format: cell-based; details: ATCC208821, 24 h, 35° C.
[4] = test system: C. parapsilosis ATCC 22019; assay: MIC assay, Candida standard strain (CLSI M27-A3); format: cell-based; details: Lodderomyces parapsilosis, ATCC22019; C. parapsilosis ATCC 22019 (quality-control strain); 24 h, 35° C.
Description: (§1) After gradient dilution of test compounds, an MIC assay was performed on a Candida standard strain, and an MEC assay was performed on an Aspergillus standard strain. […] A cryopreserved strain was passaged at least 2 times. A single colony was picked and resuspended in a physiological saline or sterile water tube, and the tube was subjected to vortex shaking. The Candida suspension was adjusted to 0.5 McF (1×10^6-5×10^6 CFU/mL) at a wavelength of 530 nm by using a spectrophotometer. After being diluted 50 times with physiological saline, the Candida suspension was diluted 20 times with 1×RPMI 1640 broth (1×10^3-5×10^3 CFU/mL). 10 μL of the diluted Candida suspension was coated on an SDA plate for colony counting, with a range of about 10-50 single colonies. After a prepared drug sensitive plate was completely dissolved at room temperature, the Candida suspension was added to the 96-well plate by using a multi-channel pipettor at 100 μL/well. At this time, the concentration of Candida in each well should be 0.5×10^3-2.5×10^3 CFU/mL. A yeast-type fungus assay plate was placed in an incubator, and incubated for 24 h at 35° C. and 85% humidity, and then the MIC values were read. For echinocandin-based drugs, Aspergillus was incubated for 21-26 h at 28° C., and then the MEC results were read. Yeast-type fungi: A 96-well plate was attached with a disposable parafilm, shaken for uniformly mixing, and observed with naked eyes by using a plate reader microscope. […] Pictures were taken and saved by using an automated plate reader.

C. tropicalis ATCC 750 = assay: MIC assay, Candida standard strain (CLSI M27-A3); format: cell-based; details: ATCC750, 24 h, 35° C.
Description: as §1

[5] = test system: Candida albicans ATCC 90028; assay: MIC assay, Candida standard strain (CLSI M27-A3); format: cell-based; details: ATCC90028, 24 h, 35° C., >50% growth inhibition
Description: as §1

[6] = test system: Candida albicans CMCC 98001; assay: MIC assay, Candida standard strain (CLSI M27-A3); format: cell-based; details: CMCC98001, 24 h, 35° C.
Description: as §1

[7] = test system: Candida albicans ATCC 10231; assay: MIC assay, Candida standard strain (CLSI M27-A3); format: cell-based; details: ATCC10231, 24 h, 35° C., >50% growth inhibition
Description: as §1

[8] = test system: Candida albicans ATCC MYA-427; assay: MIC assay, Candida standard strain (CLSI M27-A3); format: cell-based; details: 24 h, 35° C.
Description: as §1

[9] = test system: Candida albicans ATCC 76485; assay: MIC assay, Candida standard strain (CLSI M27-A3); format: cell-based; details: ATCC76485, 24 h, 35° C.
Description: as §1

[10] = test system: Candida albicans ATCC MYA-574; assay: MIC assay, Candida standard strain (CLSI M27-A3); format: cell-based; details: 24 h, 35° C.
Description: as §1

[11] = test system: Candida albicans ATCC MYA-2876; assay: MIC assay, Candida standard strain (CLSI M27-A3); format: cell-based; details: 24 h, 35° C.
Description: as §1

[12] = test system: Candida albicans ATCC 90029; assay: MIC assay, Candida standard strain (CLSI M27-A3); format: cell-based; details: ATCC90029, 24 h, 35° C.
Description: as §1

[13] = test system: Candida albicans ATCC 18804; assay: MIC assay, Candida standard strain (CLSI M27-A3); format: cell-based; details: ATCC18804, 24 h, 35° C.
Description: as §1

[14] = test system: Candida albicans ATCC 14053; assay: MIC assay, Candida standard strain (CLSI M27-A3); format: cell-based; details: ATCC14053, 24 h, 35° C.
Description: as §1

C. glabrata ATCC 15126 = assay: MIC assay, Candida standard strain (CLSI M27-A3); format: cell-based; details: Nakaseomyces glabratus, ATCC15126, 24 h, 35° C.
Description: as §1

[15] = test system: Candida albicans ATCC 64124; assay: MIC assay, Candida standard strain (CLSI M27-A3); format: cell-based; details: ATCC64124, 24 h, 35° C.
Description: as §1

[16] = test system: Candida albicans CICC 1943; assay: MIC assay, Candida standard strain (CLSI M27-A3); format: cell-based; details: CICC1943, 24 h, 35° C.
Description: as §1

C. krusei ATCC 6258 = assay: MIC assay, Candida standard strain (CLSI M27-A3); format: cell-based; details: Pichia kudriavzevii, ATCC6258; C. krusei ATCC 6258 (quality-control strain); 24 h, 35° C.
Description: as §1

[17] = test system: Candida albicans ATCC MYA-1023; assay: MIC assay, Candida standard strain (CLSI M27-A3); format: cell-based; details: 24 h, 35° C.
Description: as §1

[18] = test system: Candida albicans ATCC MYA-4788; assay: MIC assay, Candida standard strain (CLSI M27-A3); format: cell-based; details: 24 h, 35° C.
Description: as §1

[19] = test system: Pichia guilliermondii ATCC 6260; assay: MIC assay, yeast-type fungi (CLSI M27-A3); format: cell-based; details: Meyerozyma guilliermondii, ATCC6260, 24 h, 35° C.
Description: as §1

[20] = Study on pharmacokinetic properties in rats after intravenous injection; details: SD, rat, in vivo, 5 mg/kg

SMILES | MEC [1] | MIC [3] | MIC [4] | MIC (C. tropicalis ATCC 750) | MIC [5] | MIC [6] | MIC [7] | MIC [8] | MIC [9] | MIC [10] | MIC [11] | MIC [12] | MIC [13] | MIC [14] | MIC (C. glabrata ATCC 15126) | MIC [15] | MIC [16] | MIC (C. krusei ATCC 6258) | MIC [17] | MIC [18] | other results
CCCCCOc1cc(F)c(C#Cc2ccc3cc(C(=O)N[C@H]4C[C@@H](O)[C@@H](OCC[N+](C)(C)C)NC(=O)[C@@H]5[C@@H](O)[C@@H](C)CN5C(=O)[C@H]([C@@H](C)O)NC(=O)[C@H]([C@H](O)[C@@H](O)c5ccc(O)cc5)NC(=O)[C@@H]5C[C@@H](O)CN5C(=O)[C@H]([C@@H](C)O)NC4=O)ccc3c2)cc1F [Example 16] (X1-[Orn(4R-OH,5R-OCH2CH2NMe3+)]T[Hyp][hTyr(3S-OH,4S-OH)]T[Pro(3S-OH,4S-Me)]; lactam 1-C) | ≤0.015 µg/mL | 8 mg/L | 0.5 mg/L | ≤ 0.015 mg/L | 0.03 mg/L | ≤ 0.015 mg/L | 0.03 mg/L | 0.03 mg/L | ≤ 0.015 mg/L | ≤ 0.015 mg/L | ≤ 0.015 mg/L | ≤ 0.015 mg/L | ≤ 0.015 mg/L | ≤ 0.015 mg/L | 0.06 mg/L | ≤ 0.015 mg/L | 0.03 mg/L | 0.06 mg/L | ≤ 0.015 mg/L | ≤ 0.015 mg/L | AUC(0-inf) (in vivo; 2.5 mg/kg): 275 µg·h/mL; AUC(0-t) (in vivo; 2.5 mg/kg): 206 µg·h/mL; Cmax (in vivo; 2.5 mg/kg): 6.08 µg/mL; MRT last (in vivo; 2.5 mg/kg): 26.1 h; Vd (in vivo; 2.5 mg/kg): 0.49 L/kg; clearance (in vivo; 2.5 mg/kg): 0.009 L/h/kg; half-life (in vivo; 2.5 mg/kg): 37.3 h; AUC(0-inf) (in vivo; 5 mg/kg): 424 µg·h/mL; AUC(0-t) (in vivo; 5 mg/kg): 326 µg·h/mL; Cmax (in vivo; 5 mg/kg): 12 µg/mL; MRT last (in vivo; 5 mg/kg): 24.2 h; Vd (in vivo; 5 mg/kg): 0.591 L/kg; clearance (in vivo; 5 mg/kg): 0.012 L/h/kg; half-life (in vivo; 5 mg/kg): 34.8 h; drug exposure level (Cmax and AUC) and half-life (T1/2) in the blood plasma compared with rezafungin [2]: significantly higher; MIC [19]: 0.25 mg/L
CCCCCOc1ccc(-c2ccc(-c3ccc(C(=O)N[C@H]4C[C@@H](O)[C@@H](OCC[N+](C)(C)C)NC(=O)[C@@H]5[C@@H](O)[C@@H](C)CN5C(=O)[C@H]([C@@H](C)O)NC(=O)[C@H]([C@H](O)[C@@H](O)c5ccc(O)cc5)NC(=O)[C@@H]5C[C@@H](O)CN5C(=O)[C@H]([C@@H](C)O)NC4=O)cc3)cc2)cc1 [Rezafungin, rezafungin, reference compound] ({pTerphenylCO(4''-OnC5H11)}-[Orn(4R-OH,5R-OCH2CH2NMe3+)]T[Hyp][hTyr(3S-OH,4S-OH)]T[Pro(3S-OH,4S-Me)]; lactam 1-C) | ≤0.015 µg/mL | 16 mg/L | 0.5 mg/L | ≤ 0.015 mg/L | ≤ 0.015 mg/L | ≤ 0.015 mg/L | ≤ 0.015 mg/L | ≤ 0.015 mg/L | ≤ 0.015 mg/L | ≤ 0.015 mg/L | ≤ 0.015 mg/L | ≤ 0.015 mg/L | ≤ 0.015 mg/L | ≤ 0.015 mg/L | 0.06 mg/L | ≤ 0.015 mg/L | ≤ 0.015 mg/L | 0.03 mg/L | ≤ 0.015 mg/L | ≤ 0.015 mg/L | MIC [19]: 0.25 mg/L; AUC(0-inf) [20]: 104 µg·h/mL; AUC(0-t) [20]: 89 µg·h/mL; Cmax [20]: 4.75 µg/mL; MRT last [20]: 20.2 h; Vd [20]: 1.9 L/kg; clearance [20]: 0.048 L/h/kg; half-life [20]: 27.5 h

Source: US20250011365A1, “ECHINOCANDIN-BASED DRUG, AND PREPARATION METHOD THEREFOR AND USE THEREOF” (Shenzhen Sungening Biological Co., Ltd, priority 2023, published 2025)
